In US20220040129A1, “TREATMENT OF HYPERAMMONEMIA IN PATIENTS WITH RENAL INSUFFICIENCY” (RECORDATI S.p.A., priority 2019, published 2022):

How the values were obtained:
Experiment in all cases: In vitro transporter inhibition
Format in all cases: in vitro ADME
human OATP1B1 = biological target: T1, human OATP1B1 (Homo sapiens, UniProt Q9Y6L6)
T1 sequence (Q9Y6L6 1-691): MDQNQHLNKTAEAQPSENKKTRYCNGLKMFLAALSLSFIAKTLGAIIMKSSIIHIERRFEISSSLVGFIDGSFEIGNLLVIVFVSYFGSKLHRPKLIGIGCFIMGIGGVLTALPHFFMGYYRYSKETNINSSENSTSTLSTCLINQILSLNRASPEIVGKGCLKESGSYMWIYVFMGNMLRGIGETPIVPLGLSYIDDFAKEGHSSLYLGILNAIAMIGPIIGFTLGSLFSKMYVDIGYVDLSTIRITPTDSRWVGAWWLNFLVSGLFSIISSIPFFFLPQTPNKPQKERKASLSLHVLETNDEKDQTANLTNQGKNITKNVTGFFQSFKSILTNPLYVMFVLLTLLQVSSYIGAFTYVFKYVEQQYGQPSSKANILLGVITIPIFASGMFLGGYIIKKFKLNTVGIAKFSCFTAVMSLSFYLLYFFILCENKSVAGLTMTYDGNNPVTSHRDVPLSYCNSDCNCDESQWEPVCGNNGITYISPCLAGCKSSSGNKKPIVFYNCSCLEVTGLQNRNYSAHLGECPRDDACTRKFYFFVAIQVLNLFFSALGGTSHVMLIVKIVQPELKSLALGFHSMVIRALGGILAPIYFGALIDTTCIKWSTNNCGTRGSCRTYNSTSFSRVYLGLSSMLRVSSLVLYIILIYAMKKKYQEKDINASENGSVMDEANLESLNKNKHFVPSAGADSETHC
Protocol: (§1) In vitro drug interaction studies were performed with human transporters. […] Potential interactions with inhibitors of the OAT1 transporter were considered clinically irrelevant.

human OCT1 = biological target: T2, human OCT1 (Homo sapiens, UniProt O15245)
T2 sequence (O15245 1-554): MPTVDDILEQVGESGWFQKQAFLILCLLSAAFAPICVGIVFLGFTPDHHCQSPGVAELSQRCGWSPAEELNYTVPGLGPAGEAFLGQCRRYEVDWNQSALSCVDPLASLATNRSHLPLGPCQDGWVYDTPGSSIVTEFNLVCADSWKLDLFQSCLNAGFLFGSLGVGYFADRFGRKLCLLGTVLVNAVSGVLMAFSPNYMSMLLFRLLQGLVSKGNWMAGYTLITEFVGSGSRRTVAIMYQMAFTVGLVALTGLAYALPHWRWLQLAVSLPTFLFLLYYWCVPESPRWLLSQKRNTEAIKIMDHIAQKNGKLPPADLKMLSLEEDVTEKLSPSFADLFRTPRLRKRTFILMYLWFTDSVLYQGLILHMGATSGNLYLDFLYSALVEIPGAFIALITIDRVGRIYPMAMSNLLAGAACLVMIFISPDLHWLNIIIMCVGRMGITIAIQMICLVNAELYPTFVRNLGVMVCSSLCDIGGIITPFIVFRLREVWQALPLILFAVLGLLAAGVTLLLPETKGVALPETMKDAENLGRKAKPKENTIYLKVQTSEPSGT
Protocol: as §1

human OATP1B3 = biological target: T3, human OATP1B3 (Homo sapiens, UniProt Q9NPD5)
T3 sequence (Q9NPD5 1-702): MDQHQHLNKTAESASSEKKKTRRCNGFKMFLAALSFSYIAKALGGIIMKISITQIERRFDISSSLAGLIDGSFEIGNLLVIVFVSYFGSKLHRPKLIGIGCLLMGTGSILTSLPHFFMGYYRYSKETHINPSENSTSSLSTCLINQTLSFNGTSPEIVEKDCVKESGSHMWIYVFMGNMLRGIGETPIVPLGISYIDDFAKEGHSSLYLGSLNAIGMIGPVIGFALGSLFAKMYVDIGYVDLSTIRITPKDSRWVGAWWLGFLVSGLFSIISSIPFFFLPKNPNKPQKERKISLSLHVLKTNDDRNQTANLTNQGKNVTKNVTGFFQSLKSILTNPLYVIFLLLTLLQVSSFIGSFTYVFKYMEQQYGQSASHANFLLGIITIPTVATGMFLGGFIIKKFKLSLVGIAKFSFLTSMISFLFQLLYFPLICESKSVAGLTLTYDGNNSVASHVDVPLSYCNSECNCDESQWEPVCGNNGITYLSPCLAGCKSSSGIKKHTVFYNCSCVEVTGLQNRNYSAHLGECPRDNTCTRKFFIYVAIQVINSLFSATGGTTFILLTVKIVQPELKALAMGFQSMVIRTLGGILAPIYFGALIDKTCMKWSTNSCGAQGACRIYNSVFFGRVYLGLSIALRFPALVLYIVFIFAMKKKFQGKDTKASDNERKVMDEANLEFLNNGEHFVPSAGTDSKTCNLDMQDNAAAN
Protocol: as §1

human BSEP = human BSEP (Homo sapiens, UniProt O95342)
Sequence of human BSEP (O95342 whole entry): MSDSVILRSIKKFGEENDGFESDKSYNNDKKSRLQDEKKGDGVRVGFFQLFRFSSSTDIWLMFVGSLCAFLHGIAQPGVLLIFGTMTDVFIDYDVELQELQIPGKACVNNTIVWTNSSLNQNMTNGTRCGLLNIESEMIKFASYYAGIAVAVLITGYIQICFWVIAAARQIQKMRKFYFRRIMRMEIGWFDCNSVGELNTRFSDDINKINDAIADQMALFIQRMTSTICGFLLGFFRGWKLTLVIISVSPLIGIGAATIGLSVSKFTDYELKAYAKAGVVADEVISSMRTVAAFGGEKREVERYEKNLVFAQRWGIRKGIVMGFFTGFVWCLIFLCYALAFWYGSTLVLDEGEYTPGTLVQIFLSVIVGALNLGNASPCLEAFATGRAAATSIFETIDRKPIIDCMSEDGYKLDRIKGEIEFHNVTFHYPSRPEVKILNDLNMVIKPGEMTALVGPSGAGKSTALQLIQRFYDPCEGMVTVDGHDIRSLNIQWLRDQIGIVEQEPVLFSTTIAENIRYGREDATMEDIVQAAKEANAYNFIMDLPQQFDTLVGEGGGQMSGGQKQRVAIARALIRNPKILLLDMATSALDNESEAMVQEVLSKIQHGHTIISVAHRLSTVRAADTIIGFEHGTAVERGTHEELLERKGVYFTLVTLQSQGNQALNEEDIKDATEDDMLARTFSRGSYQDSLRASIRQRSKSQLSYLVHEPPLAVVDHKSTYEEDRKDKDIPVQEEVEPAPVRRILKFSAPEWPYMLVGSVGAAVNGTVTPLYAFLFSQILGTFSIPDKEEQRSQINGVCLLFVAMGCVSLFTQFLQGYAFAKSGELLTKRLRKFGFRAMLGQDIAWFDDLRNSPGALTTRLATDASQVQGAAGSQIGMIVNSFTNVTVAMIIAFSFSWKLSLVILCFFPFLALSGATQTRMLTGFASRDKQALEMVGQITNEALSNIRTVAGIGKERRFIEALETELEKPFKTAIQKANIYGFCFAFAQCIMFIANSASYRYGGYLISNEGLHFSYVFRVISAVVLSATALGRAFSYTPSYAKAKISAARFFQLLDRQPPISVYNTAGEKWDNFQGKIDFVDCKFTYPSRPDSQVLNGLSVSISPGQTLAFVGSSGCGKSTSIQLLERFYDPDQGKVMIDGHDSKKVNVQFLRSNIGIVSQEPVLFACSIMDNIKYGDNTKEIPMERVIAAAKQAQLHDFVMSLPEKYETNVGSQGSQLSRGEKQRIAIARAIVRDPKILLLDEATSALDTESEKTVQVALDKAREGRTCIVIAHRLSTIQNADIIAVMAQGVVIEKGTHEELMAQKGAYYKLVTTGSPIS
Protocol: as §1

human OCT2 = biological target: T4, human OCT2 (Homo sapiens, UniProt O15244)
T4 sequence (O15244 1-555): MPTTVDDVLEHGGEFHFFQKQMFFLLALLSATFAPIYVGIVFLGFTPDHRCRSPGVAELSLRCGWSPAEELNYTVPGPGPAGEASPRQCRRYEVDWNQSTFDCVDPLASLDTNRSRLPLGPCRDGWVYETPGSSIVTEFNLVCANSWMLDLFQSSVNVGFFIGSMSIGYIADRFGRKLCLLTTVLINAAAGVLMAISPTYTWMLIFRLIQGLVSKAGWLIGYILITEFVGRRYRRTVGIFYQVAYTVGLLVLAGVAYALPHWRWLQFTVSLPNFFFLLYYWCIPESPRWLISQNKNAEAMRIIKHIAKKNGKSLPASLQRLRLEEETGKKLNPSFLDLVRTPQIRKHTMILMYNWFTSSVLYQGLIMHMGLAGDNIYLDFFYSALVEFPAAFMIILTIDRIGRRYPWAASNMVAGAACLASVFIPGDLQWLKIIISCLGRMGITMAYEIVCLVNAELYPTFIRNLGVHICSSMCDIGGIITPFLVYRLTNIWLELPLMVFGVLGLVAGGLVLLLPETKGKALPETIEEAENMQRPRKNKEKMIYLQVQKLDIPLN
Protocol: as §1

human MATE2-K = human MATE2-K (Homo sapiens, UniProt Q86VL8)
Sequence of human MATE2-K (Q86VL8 1-566 isoform Q86VL8-3): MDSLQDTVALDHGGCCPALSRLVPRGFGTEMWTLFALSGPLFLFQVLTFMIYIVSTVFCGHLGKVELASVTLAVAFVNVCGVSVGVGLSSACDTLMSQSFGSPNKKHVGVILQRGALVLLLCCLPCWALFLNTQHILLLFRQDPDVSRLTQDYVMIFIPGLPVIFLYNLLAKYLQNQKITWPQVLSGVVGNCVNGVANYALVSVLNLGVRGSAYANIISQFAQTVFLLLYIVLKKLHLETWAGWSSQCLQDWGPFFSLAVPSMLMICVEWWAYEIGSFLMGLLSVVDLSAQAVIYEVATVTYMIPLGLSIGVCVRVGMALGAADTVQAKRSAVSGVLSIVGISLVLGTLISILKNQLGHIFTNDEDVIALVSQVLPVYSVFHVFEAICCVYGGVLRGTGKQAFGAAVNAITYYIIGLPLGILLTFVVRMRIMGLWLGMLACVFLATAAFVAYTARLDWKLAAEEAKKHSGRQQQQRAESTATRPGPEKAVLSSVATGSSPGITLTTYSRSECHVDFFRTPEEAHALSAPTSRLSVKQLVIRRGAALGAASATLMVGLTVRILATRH
Protocol: as §1

NC(=O)N[C@@H](CCC(=O)O)C(=O)O [carglumic acid, N-carbamoyl-L-glutamic acid]
not an inhibitor: Inhibition of human OATP1B1 uptake transporter (human OATP1B1) | Inhibition of human OCT1 uptake transporter (human OCT1) | Inhibition of human OATP1B3 uptake transporter (human OATP1B3) | Inhibition of human BSEP efflux transporter (human BSEP) | Inhibition of human OCT2 uptake transporter (human OCT2) | Inhibition of human MATE2-K uptake transporter (human MATE2-K)
